# Measured values taken from ChEMBL document CHEMBL4834486 (Bioorg Med Chem, 2021).
# The source made the active and inactive calls. The rule behind the calls is not given here.
# What was measured:
# [1] = tested on: MCF-10A; test: Cytotoxicity against human MCF-10A cells assessed as inhibition of cell proliferation measured after 72 hrs by CCK-8 assay; assay type: cell-based
# [2] = tested on: MDA-MB-231; test: Antiproliferative activity against human MDA-MB-231 cells assessed as inhibition of cell proliferation measured after 72 hrs by CCK-8 assay; assay type: functional, cell-based; conditions: MDA-MB-231, 72 h
# [3] = tested on: MCF7; test: Antiproliferative activity against human MCF7 cells assessed as inhibition of cell proliferation measured after 72 hrs by CCK-8 assay; assay type: functional, cell-based; conditions: MCF7, 72 h
# [4] = tested on: MDA-MB-231; test: Cell cycle arrest in human MDA-MB-231 cells assessed as accumulation of cells at G2/M phase at 5 uM measured after 72 hrs by PI staining based flow cytometry method (reference value: 12.24%); assay type: functional
# [5] = tested on: MDA-MB-231; test: Induction of DNA damage in human MDA-MB-231 cells assessed as increase in tail DNA measured after 72 hrs by comet assay; assay type: functional, cell-based; conditions: dose 1.25-5 µM
# [6] = tested on: MDA-MB-231; test: Cell cycle arrest in human MDA-MB-231 cells assessed as accumulation of cells at G1 phase at 2.5 uM measured after 72 hrs by PI staining based flow cytometry method (reference value: 51.58%); assay type: functional
# [7] = tested on: MDA-MB-231; test: Cell cycle arrest in human MDA-MB-231 cells assessed as accumulation of cells at G2/M phase at 2.5 uM measured after 72 hrs by PI staining based flow cytometry method (reference value: 12.24%); assay type: functional
# [8] = tested on: MDA-MB-231; test: Induction of apoptosis in human MDA-MB-231 cells assessed as late apoptotic cells at 5 uM measured after 72 hrs by Annexin V-FITC/PI staining based flow cytometry method (reference value: 1.34%); assay type: functional
# [9] = tested on: MDA-MB-231; test: Cell cycle arrest in human MDA-MB-231 cells assessed as accumulation of cells at S phase at 1.25 uM measured after 72 hrs by PI staining based flow cytometry method (reference value: 36.19%); assay type: functional
# [10] = tested on: MDA-MB-231; test: Induction of apoptosis in human MDA-MB-231 cells assessed as necrotic cells at 2.5 uM measured after 72 hrs by Annexin V-FITC/PI staining based flow cytometry method (reference value: 0.97%); assay type: functional
# [11] = tested on: MDA-MB-231; test: Cell cycle arrest in human MDA-MB-231 cells assessed as accumulation of cells at G1 phase at 5 uM measured after 72 hrs by PI staining based flow cytometry method (reference value: 51.58%); assay type: functional
# [12] = tested on: MDA-MB-231; test: Induction of ROS generation in human MDA-MB-231 cells at 1.25 uM measured after 72 hrs by DCFH-DA staining based flow cytomtery (reference value: 4.37%); assay type: functional
# [13] = tested on: MDA-MB-231; test: Induction of apoptosis in human MDA-MB-231 cells assessed as late apoptotic cells at 2.5 uM measured after 72 hrs by Annexin V-FITC/PI staining based flow cytometry method (reference value: 1.34%); assay type: functional
# [14] = tested on: MDA-MB-231; test: Cell cycle arrest in human MDA-MB-231 cells assessed as accumulation of cells at S phase at 2.5 uM measured after 72 hrs by PI staining based flow cytometry method (reference value: 36.19%); assay type: functional
# [15] = tested on: MDA-MB-231; test: Induction of ROS generation in human MDA-MB-231 cells at 2.5 uM measured after 72 hrs by DCFH-DA staining based flow cytometry (reference value: 4.37%); assay type: functional
# [16] = tested on: MDA-MB-231; test: Induction of apoptosis in human MDA-MB-231 cells assessed as viable cells at 2.5 uM measured after 72 hrs by Annexin V-FITC/PI staining based flow cytometry method (reference value: 93.27%); assay type: functional; conditions: read-out: Activity
# [17] = tested on: MDA-MB-231; test: Induction of apoptosis in human MDA-MB-231 cells assessed as early apoptotic cells at 2.5 uM measured after 72 hrs by Annexin V-FITC/PI staining based flow cytometry method (reference value: 4.42%); assay type: functional
# [18] = tested on: MDA-MB-231; test: Inhibition of cell invasion in human MDA-MB-231 cells at 1.25 to 5 uM measured after 24 hrs by transwell assay; assay type: functional, cell-based; conditions: dose 1.25-5 µM
# [19] = tested on: MDA-MB-231; test: Inhibition of cell adhesion in human MDA-MB-231 cells measured after 72 hrs by fluorescence microscopy; assay type: functional, cell-based; conditions: dose 1.25-5 µM
# [20] = tested on: MDA-MB-231; test: Induction of apoptosis in human MDA-MB-231 cells assessed as viable cells at 1.25 uM measured after 72 hrs by Annexin V-FITC/PI staining based flow cytometry method (reference value: 93.27%); assay type: functional; conditions: read-out: Activity
# [21] = tested on: MDA-MB-231; test: Induction of apoptosis in human MDA-MB-231 cells assessed as late apoptotic cells at 1.25 uM measured after 72 hrs by Annexin V-FITC/PI staining based flow cytometry method (reference value: 1.34%); assay type: functional
# [22] = tested on: MDA-MB-231; test: Induction of apoptosis in human MDA-MB-231 cells assessed as necrotic cells at 5 uM measured after 72 hrs by Annexin V-FITC/PI staining based flow cytometry method (reference value: 0.97%); assay type: functional
# [23] = tested on: MDA-MB-231; test: Induction of apoptosis in human MDA-MB-231 cells assessed as viable cells at 5 uM measured after 72 hrs by Annexin V-FITC/PI staining based flow cytometry method (reference value: 93.27%); assay type: functional; conditions: read-out: Activity
# [24] = tested on: MDA-MB-231; test: Induction of ROS generation in human MDA-MB-231 cells at 5 uM measured after 72 hrs by DCFH-DA staining based flow cytometry (reference value: 4.37%); assay type: functional
# [25] = tested on: MDA-MB-231; test: Induction of apoptosis in human MDA-MB-231 cells assessed as early apoptotic cells at 5 uM measured after 72 hrs by Annexin V-FITC/PI staining based flow cytometry method (reference value: 4.42%); assay type: functional
# [26] = tested on: MDA-MB-231; test: Induction of DNA damage in human MDA-MB-231 cells assessed as increase in generation of endogenous double strand DNA break adducts measured after 72 hrs by comet assay; assay type: functional, cell-based; conditions: dose 1.25-5 µM
# [27] = tested on: MDA-MB-231; test: Cell cycle arrest in human MDA-MB-231 cells assessed as accumulation of cells at G1 phase at 1.25 uM measured after 72 hrs by PI staining based flow cytometry method (reference value: 51.58%); assay type: functional
# [28] = tested on: MDA-MB-231; test: Cell cycle arrest in human MDA-MB-231 cells assessed as accumulation of cells at G2/M phase at 1.25 uM measured after 72 hrs by PI staining based flow cytometry method (reference value: 12.24%); assay type: functional
# [29] = tested on: MDA-MB-231; test: Inhibition of cell migration in human MDA-MB-231 cells measured after 24 hrs by scratch wound healing assay; assay type: functional, cell-based; conditions: dose 1.25-5 µM
# [30] = tested on: MDA-MB-231; test: Induction of apoptosis in human MDA-MB-231 cells assessed as necrotic cells at 1.25 uM measured after 72 hrs by Annexin V-FITC/PI staining based flow cytometry method (reference value: 0.97%); assay type: functional
# [31] = tested on: MDA-MB-231; test: Cell cycle arrest in human MDA-MB-231 cells assessed as accumulation of cells at S phase at 5 uM measured after 72 hrs by PI staining based flow cytometry method (reference value: 36.19%); assay type: functional
# [32] = tested on: MDA-MB-231; test: Induction of apoptosis in human MDA-MB-231 cells assessed as early apoptotic cells at 1.25 uM measured after 72 hrs by Annexin V-FITC/PI staining based flow cytometry method (reference value: 4.42%); assay type: functional
smiles,measurement,setting,value
O=C(OCc1cc2c(cn1)[nH]c1ccccc12)c1ccc(N(CCCl)CCCl)cc1,IC50,[1],> 40 µM
same,IC50,[2],9.65 µM
same,IC50,[3],2.31 µM
COc1ccc(-c2nc(COC(=O)c3ccc(N(CCCl)CCCl)cc3)cc3c2[nH]c2ccccc23)cc1,IC50,[1],35.1 µM
same,IC50,[2],14.5 µM
same,IC50,[3],2.35 µM
N[C@@H](Cc1ccc(N(CCCl)CCCl)cc1)C(=O)O [MELPHALAN],IC50,[1],> 40 µM
same,IC50,[2],> 20 µM
same,IC50,[3],8.48 µM
Cc1nc(COC(=O)[C@H](Cc2ccc(N(CCCl)CCCl)cc2)NC=O)cc2c1[nH]c1ccccc12,IC50,[1],22.5 µM
same,Activity,[4],20.2%
same,Activity,[5],Dose-Dependent Effect
same,IC50,[2],4.96 µM
same,Activity,[6],44.83%
same,Activity,[7],16.45%
same,Activity,[8],22.85%
same,IC50,[3],1.79 µM
same,Activity,[9],38.53%
same,Activity,[10],3.39%
same,Activity,[11],42.06%
same,Activity,[12],17.2%
same,Activity,[13],10.22%
same,Activity,[14],38.72%
same,Activity,[15],20.33%
same,viability at 2.5 µM,[16],74.2%
same,Activity,[17],12.24%
same,inhibition,[18],Active
same,inhibition,[19],Dose-Dependent Effect
same,viability at 1.25 µM,[20],78%
same,Activity,[21],9.71%
same,Activity,[22],5.32%
same,viability at 5 µM,[23],48.5%
same,Activity,[24],47.15%
same,Activity,[25],23.28%
same,Activity,[26],Dose-Dependent Effect
same,Activity,[27],47.85%
same,Activity,[28],13.62%
same,inhibition,[29],Dose-Dependent Effect
same,Activity,[30],3.49%
same,Activity,[31],37.74%
same,Activity,[32],8.77%
Cc1nc(COC(=O)c2ccc(N(CCCl)CCCl)cc2)cc2c1[nH]c1ccccc12,IC50,[1],26.4 µM
same,IC50,[2],7.48 µM
same,IC50,[3],3.78 µM
OCc1cc2c(cn1)[nH]c1ccccc12,IC50,[1],> 40 µM
same,IC50,[2],> 20 µM
same,IC50,[3],> 20 µM
COc1cccc2c1C(=O)c1c(O)c3c(c(O)c1C2=O)C[C@@](O)(C(=O)CO)C[C@@H]3O[C@H]1C[C@H](N)[C@H](O)[C@H](C)O1 [DOXORUBICIN],IC50,[2],2.76 µM
CC(C)(C)OC(=O)N[C@@H](Cc1ccc(N(CCCl)CCCl)cc1)C(=O)OCc1cc2c(cn1)[nH]c1ccccc12,IC50,[1],> 40 µM
same,IC50,[2],16.9 µM
same,IC50,[3],3.43 µM
COC(=O)[C@H](Cc1ccc(N(CCCl)CCCl)cc1)NC(=O)CCC(=O)OCc1cc2c([nH]c3ccccc32)c(-c2ccc(OC)cc2)n1,IC50,[1],> 40 µM
same,IC50,[2],> 20 µM
same,IC50,[3],16.9 µM
COc1ccc(-c2nc(COC(=O)[C@H](Cc3ccc(N(CCCl)CCCl)cc3)NC=O)cc3c2[nH]c2ccccc23)cc1,IC50,[1],31.9 µM
same,IC50,[2],5.72 µM
same,IC50,[3],4.23 µM
